The record followed here is ChEMBL document CHEMBL1151626, “Diphenylamine, an antihyperglycemic agent from onion and tea” (1984).

Holding throughout (type): functional
What all share (design): scale not given: the % may be the effect or the level left

For assay [1], the system named is Oryctolagus cuniculus. The assay can be described thus: Hypoglycemic activity in fasting rabbit assessed as reduction of plasma glucose at 50 mg/kg, po.
The test system of assay [2] is Oryctolagus cuniculus. Briefly: Hypoglycemic activity in glucose-fed rabbit assessed as reduction of plasma glucose at 50 mg/kg, po after 0.5 hr.
Assay [3] concerns Oryctolagus cuniculus. The assay can be described thus: Hypoglycemic activity in glucose-fed rabbit assessed as reduction of plasma glucose at 50 mg/kg, po after 1 hr.
Assay [4] has as its system Oryctolagus cuniculus. Briefly: Hypoglycemic activity in glucose-fed rabbit assessed as reduction of plasma glucose at 50 mg/kg, po after 1.5 hrs.
Assay [5] relates to Oryctolagus cuniculus. The assay can be described thus: Hypoglycemic activity in glucose-fed rabbit assessed as reduction of plasma glucose at 50 mg/kg, po after 2 hrs.
For assay [6], the system named is Oryctolagus cuniculus. Briefly: Hypoglycemic activity in rabbit assessed as reduction of plasma glucose at 50 mg/kg, po after 2 hrs.
The test system of assay [7] is Oryctolagus cuniculus. Briefly: Hypoglycemic activity in glucose-fed rabbit assessed as reduction of plasma glucose at 50 mg/kg, po after 2.5 hrs.
Assay [8] deals with Oryctolagus cuniculus. The assay can be described thus: Hypoglycemic activity in rabbit assessed as reduction of plasma glucose at 10 mg/kg, po after 2 hrs.
For assay [9], the system named is Oryctolagus cuniculus. The assay can be described thus: Hypoglycemic activity in glucose-fed rabbit assessed as reduction of plasma glucose at 10 mg/kg, po after 2.5 hrs.
The test system of assay [10] is Oryctolagus cuniculus. Briefly: Hypoglycemic activity in glucose-fed rabbit assessed as reduction of plasma glucose at 10 mg/kg, po after 1.5 hrs.
The subject of assay [11] is Oryctolagus cuniculus. The assay can be described thus: Hypoglycemic activity in fasting rabbit assessed as reduction of plasma glucose at 10 mg/kg, po.
Assay [12] has as its system Oryctolagus cuniculus. Briefly: Hypoglycemic activity in glucose-fed rabbit assessed as reduction of plasma glucose at 10 mg/kg, po after 0.5 hr.
The subject of assay [13] is Oryctolagus cuniculus. Briefly: Hypoglycemic activity in glucose-fed rabbit assessed as reduction of plasma glucose at 10 mg/kg, po after 2 hrs.
The test system of assay [14] is Oryctolagus cuniculus. Briefly: Hypoglycemic activity in glucose-fed rabbit assessed as reduction of plasma glucose at 10 mg/kg, po after 1 hr.

SMILES strings stand for the structures.

In the case of `CCCCNC(=O)NS(=O)(=O)c1ccc(C)cc1` [TOLBUTAMIDE], the Activity stood at 104.2 mg% in the assay with Oryctolagus cuniculus [1]; 129 mg% in the assay with Oryctolagus cuniculus [2]; 154.3 mg% in the assay on Oryctolagus cuniculus [3]; 125.2 mg% in the assay on Oryctolagus cuniculus [4]; 104 mg% with Oryctolagus cuniculus [5]; 44.1% in the assay on Oryctolagus cuniculus [6]. Further, the Activity in the assay with Oryctolagus cuniculus [7] was 95.1 mg%.

Take `c1ccc(Nc2ccccc2)cc1` [DIPHENYLAMINE]: the Activity in the assay with Oryctolagus cuniculus [8] is recorded as 61.4%; with Oryctolagus cuniculus [9], 77.2 mg%; with Oryctolagus cuniculus [10], 80.2 mg%; in the assay on Oryctolagus cuniculus [11] it was 102.2 mg%; in the assay with Oryctolagus cuniculus [12], 140.2 mg%; in the assay with Oryctolagus cuniculus [13] it was 71.8 mg%. In the assay with Oryctolagus cuniculus [14], the Activity is given as 154.6 mg%.
